The series deals with pooled human hepatocytes. Put plainly: Incubation with pooled human hepatocytes, metabolite identification by LC-QTOF-MS. It is filed as in vitro ADME. The conditions noted are these: 5 µM, HHeps, up to 3 h. The protocol: Incubations of the SCRAs with HHeps and subsequent metabolite identification were carried out as previously described in a published procedure, with slight modifications (Åstrand et al. [2019]; Stalberga et al. [2022]). To summarise, 5 µM of each SCRA was incubated with HHeps (100,000 cells) at 37 °C, 5% CO2 in a total volume of 100 μL of Williams E medium supplemented with L-glutamine and HEPES. Incubations were carried out in duplicate and quenched by the addition of 100 µL ice-cold acetonitrile at 0, 0.5, 1 and 3 h, after which the incubates were centrifuged at 1,100 × g for 15 min at 4 °C. The resulting supernatant was analysed by LC–QTOF-MS. On each day, negative controls (HHeps without drug) and degradation controls (drug without HHeps) were also incubated for 3 h.
Chromatographic separation was achieved using an Agilent 1290 Infinity ultra-high performance liquid chromatography (UHPLC) system (Agilent Technologies, Kista, Sweden); 4 µL supernatant was injected onto an Acquity HSS T3 column (150 × 2.1 mm, 1.8 μm) fitted with an Acquity VanGuard precolumn (Waters, Sollentuna, Sweden). Gradient elution was employed using 0.1% formic acid in water (A) and 0.1% formic acid in acetonitrile (B) mobile phases: 1% B (0–0.6 min); 1–20% B (0.6–0.7 min); 20–85% B (0.7–13 min); 85–95% B (13–15 min); 95% B (15–18 min); 95–1% B (18–18.1 min); 1% B (18.1–19 min), with a flow rate of 0.5 mL/min and column temperature of 60 °C. The UHPLC system was coupled to an Agilent 6550 iFunnel QTOF mass spectrometer (Agilent Technologies, Kista, Sweden) with a Dual Agilent Jet Stream electrospray ionisation (ESI) source. […]
To identify structure–metabolism relationships, the total proportion (%) that each type of biotransformation contributed to the summed abundance of metabolites (as measured by peak area) across the 0.5, 1 and 3 h incubations was determined. […]

Here are results for three molecules from article PMC12367891, “Structure–metabolism relationships of 4-pentenyl synthetic cannabinoid receptor agonists using in vitro human hepatocyte incubations and high-resolution mass spectrometry” (Archives of Toxicology, 2025).

Molecules are shown by their SMILES.

On to `C=CCCCN1C(=O)/C(=N\NC(=O)c2ccccc2)c2ccccc21` [BZO-4en-POXIZID], for which the “abundances of metabolites relative to the parent compound” value is recorded as “small relative to the parent compound”.
As for `C=CCCCn1cc(C(=O)NC(C(=O)OC)C(C)(C)C)c2ccccc21` (stereo not drawn) [MDMB-4en-PICA], the most abundant metabolite entry is on record as “ester hydrolysis metabolite”.
Turning to `C=CCCCn1nc(C(=O)NC(C(=O)OC)C(C)(C)C)c2ccccc21` (stereo not drawn) [MDMB-4en-PINACA, methyl 3,3-dimethyl-2-{[1-(pent-4-en-1-yl)-1H-indazole-3-carbonyl]amino}butanoate], the most abundant metabolite result was “ester hydrolysis metabolite”.
